According to patent publication US20260176320A1, “MODULATORS OF G-PROTEIN COUPLED RECEPTORS” (priority 2018, published 2026):
Like-named read-outs stand apart in the source and are kept apart here. Square brackets hold non-standard residues; d marks the D form. Peptide text beside a SMILES is read from it. * marks the point of attachment. X1 = O=C(CSCC(=O)*)NCCN1C(=O)c2ccccc2C1=O; Aib = CC(C)(N)C(=O)O

Experiments:
GIP-R = biological target: T1, GIP-R (Homo sapiens, UniProt P48546); experiment: HitHunter cAMP assay (GIP-R); type: cell-based; settings: for Emax: read-out: (Emax) GIP-R
T1 sequence (P48546 22-466): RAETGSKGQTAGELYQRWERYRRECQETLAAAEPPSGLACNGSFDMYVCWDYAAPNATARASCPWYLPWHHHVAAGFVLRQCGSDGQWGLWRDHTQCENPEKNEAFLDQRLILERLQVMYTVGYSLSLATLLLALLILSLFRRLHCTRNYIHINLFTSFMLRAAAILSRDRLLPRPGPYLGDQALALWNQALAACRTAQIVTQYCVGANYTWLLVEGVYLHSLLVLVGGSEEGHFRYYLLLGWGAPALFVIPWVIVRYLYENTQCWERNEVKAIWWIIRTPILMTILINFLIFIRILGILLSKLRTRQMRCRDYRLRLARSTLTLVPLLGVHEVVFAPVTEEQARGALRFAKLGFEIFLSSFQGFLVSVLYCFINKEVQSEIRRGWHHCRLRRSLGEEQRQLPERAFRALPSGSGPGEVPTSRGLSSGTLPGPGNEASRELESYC
Outline: (§1)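 Cells were resuspended in HBSS plus HEPES, IBMX (625 μM) and BSA, then dispensed with antibody at 10,000 per well. Agonists followed as 22-point twofold series, 30 min at room temperature. Antibody reagent and detection steps ran 1 h and overnight in the dark before luminescence.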

GLP-1R = GLP-1R (Homo sapiens, UniProt P43220); experiment: HitHunter cAMP assay (GLP-1R); type: cell-based; settings: for EC50: EC50 GLP-1R/nM; for Emax: read-out: (Emax) GLP-1R
Sequence of GLP-1R (P43220 24-463): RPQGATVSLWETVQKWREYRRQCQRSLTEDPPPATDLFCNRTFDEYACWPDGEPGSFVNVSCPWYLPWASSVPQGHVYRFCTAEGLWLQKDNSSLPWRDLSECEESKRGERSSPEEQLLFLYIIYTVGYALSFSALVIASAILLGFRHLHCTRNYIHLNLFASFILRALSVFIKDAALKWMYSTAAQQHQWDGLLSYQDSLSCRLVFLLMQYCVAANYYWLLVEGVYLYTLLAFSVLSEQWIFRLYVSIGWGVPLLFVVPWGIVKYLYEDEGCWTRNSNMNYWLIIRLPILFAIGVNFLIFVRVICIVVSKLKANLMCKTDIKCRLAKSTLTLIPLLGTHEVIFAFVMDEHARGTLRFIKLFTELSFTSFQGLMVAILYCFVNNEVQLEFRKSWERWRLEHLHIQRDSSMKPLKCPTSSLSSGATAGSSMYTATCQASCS
Outline: as §1

[1] = read-out: EC50 GIP-R/nM, Table 3A, cAMP

Row | SMILES | EC50 (GIP-R; EC50 GIP-R/nM, Table 3, cAMP) [nM] | Emax at 1 µM (GIP-R; read-out: (Emax) GIP-R at 1 μM, Table 3, cAMP, at 1 μM) [%] | EC50 (GIP-R; [1]) [nM] | EC50 (GLP-1R; Table 3, cAMP) [nM] | EC50 (GLP-1R; Table 3A, cAMP) [nM] | Emax (GLP-1R; Table 3, cAMP) [%] | Emax (GLP-1R; Table 3A, cAMP) [%] | Emax (GIP-R; Table 3A, cAMP) [%] | EC50 (GIP-R; Table 3A, cAMP, read-out: EC50 GIP-R/nM) [nM] | EC50 (GIP-R; EC50 GIP-R/nM, Table 3A, cAMP) [nM] | Emax (GIP-R; Table 3, cAMP) [%] | EC50 (GIP-R; read-out: EC50 GIP-R/nM, Table 3, cAMP) [nM] | Emax (GIP-R) [%] | Emax (GLP-1R) [%]
1 | CC[C@H](C)[C@H](NC(=O)[C@H](CO)NC(=O)[C@H](Cc1ccc(O)cc1)NC(=O)[C@H](CC(=O)O)NC(=O)[C@H](CO)NC(=O)[C@@H](NC(=O)[C@H](Cc1ccccc1)NC(=O)[C@@H](NC(=O)CNC(=O)[C@H](CCC(=O)O)NC(=O)C1(C(=O)NCCN2C(=O)CSC2=O)Cc2ccccc2C1)[C@@H](C)O)[C@@H](C)O)C(=O)N[C@@H](Cc1ccc(O)cc1)C(=O)N[C@@H](CC(C)C)C(=O)N[C@@H](CC(=O)O)C(=O)N[C@@H](CCCCN)C(=O)N[C@@H](CCC(N)=O)C(=O)N[C@@H](C)C(=O)N[C@@H](C)C(=O)NC(C)(C)C(=O)N[C@@H](CCC(=O)O)C(=O)N[C@@H](Cc1ccccc1)C(=O)N[C@H](C(=O)N[C@@H](CC(N)=O)C(=O)N[C@@H](Cc1c[nH]c2ccccc12)C(=O)N[C@@H](CC(C)C)C(=O)N[C@@H](CC(C)C)C(=O)N[C@@H](C)C(=O)NCC(=O)NCC(=O)N1CCC[C@H]1C(=O)N[C@@H](CO)C(=O)N[C@@H](CO)C(=O)NCC(=O)N[C@@H](C)C(=O)N1CCC[C@H]1C(=O)N1CCC[C@H]1C(=O)N1CCC[C@H]1C(=O)N[C@@H](CO)C(=O)N[C@@H](CCCCN)C(N)=O)C(C)C [Compound 124] | > 1000 | 10 | > 1000 | 10 to 100 | 10 to 100 | 73 | 73 | – | – | – | – | – | – | –
2 | CCCCCCCCCCCCCCCC(=O)N[C@@H](CCC(=O)NCCCC[C@H](NC(=O)[C@H](CO)NC(=O)[C@@H]1CCCN1C(=O)[C@@H]1CCCN1C(=O)[C@@H]1CCCN1C(=O)[C@H](C)NC(=O)CNC(=O)[C@H](CO)NC(=O)[C@H](CO)NC(=O)[C@@H]1CCCN1C(=O)CNC(=O)CNC(=O)[C@H](C)NC(=O)[C@H](CC(C)C)NC(=O)[C@H](CC(C)C)NC(=O)[C@H](Cc1c[nH]c2ccccc12)NC(=O)[C@H](CC(N)=O)NC(=O)[C@@H](NC(=O)[C@H](Cc1ccccc1)NC(=O)[C@H](CCC(=O)O)NC(=O)C(C)(C)NC(=O)[C@H](C)NC(=O)[C@H](C)NC(=O)[C@H](CCC(N)=O)NC(=O)[C@H](CCCCN)NC(=O)[C@H](CC(=O)O)NC(=O)[C@H](CC(C)C)NC(=O)[C@H](Cc1ccc(O)cc1)NC(=O)[C@@H](NC(=O)[C@H](CO)NC(=O)[C@H](Cc1ccc(O)cc1)NC(=O)[C@H](CC(=O)O)NC(=O)[C@H](CO)NC(=O)[C@@H](NC(=O)[C@H](Cc1ccccc1)NC(=O)[C@@H](NC(=O)CNC(=O)[C@H](CCC(=O)O)NC(=O)CCNC(=O)CCN1CCCCCC1=O)[C@@H](C)O)[C@@H](C)O)[C@@H](C)CC)C(C)C)C(N)=O)C(=O)O [Compound 267] | – | – | – | – | – | – | 100 | 40 | 10 to 100 | – | – | – | – | –
3 | CCCCCCCCCCCCCCCC(=O)N[C@@H](CCC(=O)NCCCC[C@H](NC(=O)[C@H](CO)NC(=O)[C@@H]1CCCN1C(=O)[C@@H]1CCCN1C(=O)[C@@H]1CCCN1C(=O)[C@H](C)NC(=O)CNC(=O)[C@H](CO)NC(=O)[C@H](CO)NC(=O)[C@@H]1CCCN1C(=O)CNC(=O)CNC(=O)[C@H](C)NC(=O)[C@H](CC(C)C)NC(=O)[C@H](CC(C)C)NC(=O)[C@H](Cc1c[nH]c2ccccc12)NC(=O)[C@H](CC(N)=O)NC(=O)[C@@H](NC(=O)[C@H](Cc1ccccc1)NC(=O)[C@H](CCC(=O)O)NC(=O)C(C)(C)NC(=O)[C@H](C)NC(=O)[C@H](C)NC(=O)[C@H](CCC(N)=O)NC(=O)[C@H](CCCCN)NC(=O)[C@H](CC(=O)O)NC(=O)[C@H](CC(C)C)NC(=O)[C@H](Cc1ccc(O)cc1)NC(=O)[C@@H](NC(=O)[C@H](CO)NC(=O)[C@H](Cc1ccc(O)cc1)NC(=O)[C@H](CC(=O)O)NC(=O)[C@H](CO)NC(=O)[C@@H](NC(=O)[C@H](Cc1ccccc1)NC(=O)[C@@H](NC(=O)CNC(=O)[C@H](CCC(=O)O)NC(=O)CSCC(=O)NCCN1C(=O)C[C@@H](OC)C1=O)[C@@H](C)O)[C@@H](C)O)[C@@H](C)CC)C(C)C)C(N)=O)C(=O)O [Compound 48] | 0.1 to 1 | – | – | 0.1 to 1 | 0.1 to 1 | 104 | 104 | 65 | – | 0.1 to 1 | 65 | – | – | –
4 | CC[C@H](C)[C@H](NC(=O)[C@H](CO)NC(=O)[C@H](Cc1ccc(O)cc1)NC(=O)[C@H](CC(=O)O)NC(=O)[C@H](CO)NC(=O)[C@@H](NC(=O)[C@H](Cc1ccccc1)NC(=O)[C@@H](NC(=O)CNC(=O)[C@H](CCC(=O)O)NC(=O)CSCC(=O)NCCN1C(=O)c2ccccc2C1=O)[C@@H](C)O)[C@@H](C)O)C(=O)N[C@@H](Cc1ccc(O)cc1)C(=O)N[C@@H](CC(C)C)C(=O)N[C@@H](CC(=O)O)C(=O)N[C@@H](CCC(=O)O)C(=O)N[C@@H](CCC(N)=O)C(=O)N[C@@H](C)C(=O)N[C@@H](C)C(=O)NC(C)(C)C(=O)N[C@@H](CCC(=O)O)C(=O)N[C@@H](Cc1ccccc1)C(=O)N[C@H](C(=O)N[C@@H](CC(N)=O)C(=O)N[C@@H](Cc1c[nH]c2ccccc12)C(=O)N[C@@H](CC(C)C)C(=O)N[C@@H](CC(C)C)C(=O)N[C@@H](C)C(=O)NCC(=O)NCC(=O)N1CCC[C@H]1C(=O)N[C@@H](CO)C(=O)N[C@@H](CO)C(=O)NCC(=O)N[C@@H](C)C(=O)N1CCC[C@H]1C(=O)N1CCC[C@H]1C(=O)N1CCC[C@H]1C(=O)N[C@@H](CO)C(=O)N[C@@H](CCCCN)C(N)=O)C(C)C [Compound 150] (X1-EGTFTSDYSIYLDEQAA[Aib]EFVNWLLAGGPSSGAPPPSK-NH2) | – | – | < 1 | 1 to 10 | 1 to 10 | 95 to 113 | 95 to 113 | 118 to 130 | – | – | – | < 1 | – | –
5 | CC[C@H](C)[C@H](NC(=O)[C@H](CO)NC(=O)[C@H](Cc1ccc(O)cc1)NC(=O)[C@H](CC(=O)O)NC(=O)[C@H](CO)NC(=O)[C@@H](NC(=O)[C@H](Cc1ccccc1)NC(=O)[C@@H](NC(=O)CNC(=O)[C@H](CCC(=O)O)NC(=O)CSCC(=O)NCCn1ccc(C(F)(F)F)cc1=O)[C@@H](C)O)[C@@H](C)O)C(=O)N[C@@H](Cc1ccc(O)cc1)C(=O)N[C@@H](CC(C)C)C(=O)N[C@@H](CC(=O)O)C(=O)N[C@@H](CCCCN)C(=O)N[C@@H](CCC(N)=O)C(=O)N[C@@H](C)C(=O)N[C@@H](C)C(=O)NC(C)(C)C(=O)N[C@@H](CCC(=O)O)C(=O)N[C@@H](Cc1ccccc1)C(=O)N[C@H](C(=O)N[C@@H](CC(N)=O)C(=O)N[C@@H](Cc1c[nH]c2ccccc12)C(=O)N[C@@H](CC(C)C)C(=O)N[C@@H](CC(C)C)C(=O)N[C@@H](C)C(=O)NCC(=O)NCC(=O)N1CCC[C@H]1C(=O)N[C@@H](CO)C(=O)N[C@@H](CO)C(=O)NCC(=O)N[C@@H](C)C(=O)N1CCC[C@H]1C(=O)N1CCC[C@H]1C(=O)N1CCC[C@H]1C(=O)N[C@@H](CO)C(=O)N[C@@H](CCCCN)C(N)=O)C(C)C [Compound 121] | – | – | – | – | – | – | – | – | – | – | – | – | 27 | 90
